In the NIST ThermoML archive (doi:10.1016/j.fluid.2007.07.029):
Numbers after ± are expanded uncertainties.

Details: Liquid, Transpiration method

SMILES: CCCCC(CC)C(=O)OCC(COC(=O)C(CC)CCCC)(COC(=O)C(CC)CCCC)COC(=O)C(CC)CCCC (stereo not given) [pentaerythritol tetra(2-ethylhexanoate)]
- vapor or sublimation pressure (353.96 K): 1.27e-07 ± 8.2e-08 kPa
- vapor or sublimation pressure (363.89 K): 3.67e-07 ± 9.2e-08 kPa
- vapor or sublimation pressure (373.81 K): 1.07e-06 ± 1.4e-07 kPa
- vapor or sublimation pressure (383.56 K): 3.37e-06 ± 3.3e-07 kPa
- vapor or sublimation pressure (393.56 K): 8.94e-06 ± 8.1e-07 kPa
- vapor or sublimation pressure (403.44 K): 2.37e-05 ± 2.1e-06 kPa
- vapor or sublimation pressure (413.44 K): 5.82e-05 ± 5.1e-06 kPa
- vapor or sublimation pressure (423.4 K): 0.000133 ± 1.2e-05 kPa
- vapor or sublimation pressure (433.18 K): 0.000287 ± 2.5e-05 kPa
- vapor or sublimation pressure (443.17 K): 0.000644 ± 5.6e-05 kPa

SMILES: CCCCCCC(=O)OCC(COC(=O)CCCCCC)(COC(=O)CCCCCC)COC(=O)CCCCCC [pentaerythritol tetraheptanoate]
- vapor or sublimation pressure (373.81 K): 2.58e-07 ± 8.8e-08 kPa
- vapor or sublimation pressure (393.48 K): 2.61e-06 ± 2.7e-07 kPa
- vapor or sublimation pressure (413.4 K): 2.2e-05 ± 2e-06 kPa
- vapor or sublimation pressure (433.36 K): 0.000131 ± 1.2e-05 kPa

SMILES: CCCCCCCCC(=O)OCC(COC(=O)CCCCCCCC)(COC(=O)CCCCCCCC)COC(=O)CCCCCCCC [pentaerythritol tetranonanoate]
- vapor or sublimation pressure (394.55 K): 5.57e-08 ± 8e-08 kPa
- vapor or sublimation pressure (414.72 K): 5.21e-07 ± 9.9e-08 kPa
- vapor or sublimation pressure (435.03 K): 3.98e-06 ± 3.8e-07 kPa
- vapor or sublimation pressure (435.11 K): 3.97e-06 ± 3.8e-07 kPa
- vapor or sublimation pressure (455.36 K): 2.82e-05 ± 2.5e-06 kPa
- vapor or sublimation pressure (476.47 K): 0.000174 ± 1.5e-05 kPa

SMILES: CCCCC(=O)OCC(COC(=O)CCCC)(COC(=O)CCCC)COC(=O)CCCC [pentaerythritol tetrapentanoate]
- vapor or sublimation pressure (334.02 K): 2.55e-07 ± 8.7e-08 kPa
- vapor or sublimation pressure (353.94 K): 2.88e-06 ± 2.9e-07 kPa
- vapor or sublimation pressure (373.62 K): 2.61e-05 ± 2.3e-06 kPa
- vapor or sublimation pressure (393.34 K): 0.000166 ± 1.5e-05 kPa
- vapor or sublimation pressure (413.08 K): 0.000935 ± 8.2e-05 kPa
